In patent publication US6255497A, “Method for the inhibition of ALDH-I useful in the treatment of alcohol dependence or alcohol abuse” (priority 1998, dated 2001):
Values after ≈ are worked out from the molar mass of the structure shown. Read-outs that look alike come from different tables or passages of the source.

Experiments:
ALDH-I [1] = biological target: T1, ALDH-I (Homo sapiens, UniProt P05091); test: Inhibition kinetics of ALDH-I, initial velocity method, formaldehyde as substrate; settings: for potency as ALDH-I inhibitor, fold less than that of daidzin / relative potency as ALDH-I inhibitor, in words: compared with daidzin
T1 sequence (P05091 18-517): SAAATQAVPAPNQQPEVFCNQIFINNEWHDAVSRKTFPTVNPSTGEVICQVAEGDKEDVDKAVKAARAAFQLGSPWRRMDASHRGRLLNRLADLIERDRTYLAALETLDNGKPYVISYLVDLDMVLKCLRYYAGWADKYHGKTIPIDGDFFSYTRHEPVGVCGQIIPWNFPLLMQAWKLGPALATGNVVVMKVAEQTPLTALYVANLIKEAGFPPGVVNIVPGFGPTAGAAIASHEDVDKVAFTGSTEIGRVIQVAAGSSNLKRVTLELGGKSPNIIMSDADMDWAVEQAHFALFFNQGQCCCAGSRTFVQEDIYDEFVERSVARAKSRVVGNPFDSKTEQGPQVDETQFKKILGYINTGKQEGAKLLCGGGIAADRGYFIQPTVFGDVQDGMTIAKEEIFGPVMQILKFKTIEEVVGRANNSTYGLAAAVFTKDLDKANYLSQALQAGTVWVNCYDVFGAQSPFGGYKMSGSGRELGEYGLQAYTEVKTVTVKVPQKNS
Procedure: The kinetic data were analyzed by standard graphical methods.

ALDH-II [2] = biological target: T2, ALDH-II (Homo sapiens, UniProt P00352); test: Inhibition kinetics of ALDH-II, initial velocity method, formaldehyde as substrate
T2 sequence (P00352 1-501): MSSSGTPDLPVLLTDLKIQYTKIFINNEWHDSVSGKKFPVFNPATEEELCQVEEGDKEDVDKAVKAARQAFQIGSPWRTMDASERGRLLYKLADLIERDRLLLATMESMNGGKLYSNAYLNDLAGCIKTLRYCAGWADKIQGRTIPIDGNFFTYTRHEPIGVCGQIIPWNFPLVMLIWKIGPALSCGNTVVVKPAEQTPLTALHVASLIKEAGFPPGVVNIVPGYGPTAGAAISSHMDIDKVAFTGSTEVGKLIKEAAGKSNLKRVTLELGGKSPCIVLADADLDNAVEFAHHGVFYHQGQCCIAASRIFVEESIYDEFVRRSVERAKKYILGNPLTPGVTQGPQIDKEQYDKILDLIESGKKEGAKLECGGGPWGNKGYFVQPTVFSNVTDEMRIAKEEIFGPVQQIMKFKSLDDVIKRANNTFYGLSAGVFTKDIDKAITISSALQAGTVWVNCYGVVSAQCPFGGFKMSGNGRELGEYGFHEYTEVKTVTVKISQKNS
Procedure: (§7) The inhibition kinetics were studied by the initial velocity method (Dixon and Webb, 1979, Enzymes, 3rd ed., Longman, Great Britain). […] The initial reaction rates were measured in a pH 9.5 assay medium 0.1 11 in glycine-NaOH, 0. […] The enzyme reaction rates were followed by monitoring the production of NADH at 340 nm (ε-6.22 mM^-1 cm^-1) with a Varian Cary 219 spectrophotometer thermostated at 25° C. The kinetic data were analyzed by standard graphical methods.

ALDH-I [3] = biological target: T1, ALDH-I; test: Reversibility of ALDH-I inhibition (preincubation, then dilution); assay type: biochemical; design: A liver sample (50 g wet weight) with the usual Caucasian ALDH phenotype (both ALDH-I and ALDH-II present); from tissue; host or cells: human liver (autopsy), purified by CM-52, AMP-agarose and DEAE HPLC
ALDH-I [4] = biological target: T1, ALDH-I; test: ALDH-I inhibition by structurally related compounds, acetaldehyde as substrate; assay type: biochemical; design: A liver sample (50 g wet weight) with the usual Caucasian ALDH phenotype (both ALDH-I and ALDH-II present); from tissue; host or cells: human liver (autopsy), purified by CM-52, AMP-agarose and DEAE HPLC
Procedure: (§1) *ALDH activities were assayed at 25° C. in 0.1 M sodium
(§2) pyrophosphate buffer pH 9.5 containins 0.15 M KCl, 1 mM NAD^+, various
(§3) concentrations of inhibitors and 5 and 200 μM acetaldehyde for ALDH-I
(§4) and ALDH-II, respectively.
For controls, 10 .eta.L of methanol was added to the assay medium. In a standard ALDH-I assay, the assay medium contains 0.1 M sodium pyrophosphate pH 9.5, 0.15 M KCl, 1 mM NAD^+, 1% methanol, 5 μM acetaldehyde, 5-10 nM ALDH-I and various concentrations of inhibitor. […] (Fong et al., 1989, supra). The inhibition of ALDH-I by the inhibitors was calculated as: [formula]
(§5) where Vo is the enzyme reaction rate measured in the absence of inhibitor, and where Vi is the enzyme reaction rate measured in the presence of inhibitor. […] IC50 values are related to the underlying Ki values.

ALDH-II [5] = biological target: T2, ALDH-II; test: ALDH-II inhibition by structurally related compounds, acetaldehyde as substrate; assay type: biochemical; design: A liver sample (50 g wet weight) with the usual Caucasian ALDH phenotype (both ALDH-I and ALDH-II present); from tissue; host or cells: human liver (autopsy), purified by CM-52, AMP-agarose and DEAE HPLC
Procedure: as §1, §2, §3, §4
(§6) For the study of the inhibition of ALDH-I by structurally related compounds to generate the data shown in Tables IV and V, each individual compound was dissolved at different concentrations in methanol and was added to the assay medium as 10 μL aliquots. For controls, 10 […] of methanol was added to the assay medium. In a standard ALDH-I assay, the assay medium contains 0.1 M sodium pyrophosphate pH 9.5, 0.15 M KCl, 1 mM NAD^+, 1% methanol, 5 μM acetaldehyde, 5-10 nM ALDH-I and various concentrations of inhibitor. The enzyme reaction rates were measured by monitoring the production of NADH at 340 nm (ε=6.22 mM^-1 cm^-1) with a Varian Cary 219 spectrophotometer thermostated at 25° C. (Fong et al., 1989, supra). The inhibition of ALDH-I by the inhibitors was calculated as: [formula]
as §5

physchem = settings: water
ALDH-II [6] = biological target: T2, ALDH-II; test: Competitive inhibition of ALDH-II with acetaldehyde as substrate; assay type: biochemical; design: A liver sample (50 g wet weight) with the usual Caucasian ALDH phenotype (both ALDH-I and ALDH-II present); from tissue; host or cells: human liver (autopsy), purified by CM-52, AMP-agarose and DEAE HPLC; settings: acetaldehyde as substrate, competitive; read-out: Ki, ALDH-II
ALDH-I or ALDH-II = test: Survey of structurally related compounds for ALDH inhibition; assay type: biochemical, human
Procedure: as §6, §5

golden hamsters = test: Dose effect on free choice ethanol intake in golden hamsters, i.p.; assay type: in vivo, golden hamster; settings: 10 mg/day, i.p.
From the text: It is common practice in quantitative drug studies with rodents to use intraperitoneal (i.p.) administration to deliver drug doses accurately (Goodman and Gilman, 1975, The Pharmacological Basis of Therapeutics, 5th ed., Macmillan, N.Y., p. 8). In particular, this method avoids variability introduced by technical difficulties of oral administration via feeding (full versus empty stomach, etc.), variations in drug transport in the gastrointestinal tract (variations in intestinal fauna and flora, individual variations in absorption rate expected of outbred animals, etc.) and other factors. […] As a control 1 ml of sterile saline was injected i.p. daily during the baseline period (typically 7-9 days) that establishes drinking preference without the drug. Saline injection i.p. had no effect on the drinking behavior of golden hamsters. Ethanol was provided as a 20% solution. Hamsters could be used more than once (but were not used more than three times) in a cycle of baseline saline injections followed by drug injections, each cycle with the drug at a different dose.
The response to daidzin treatment was computed as:
% Response=(Vo -Vd)×100/Vo

[7] = substrate: C=O; test: purified protein, by the assay type; settings: pH 9.5; 25.0 °C
Procedure: as §7

[8] = 5 μM acetaldehyde, 1 mM NAD+, pH 9.5, 25° C., read-out: IC50, ALDH-I
[9] = 200 μM acetaldehyde, 1 mM NAD+, pH 9.5, 25° C., read-out: IC50, ALDH-II

With O=c1c(-c2ccc(O)cc2)coc2cc(O[C@@H]3O[C@H](CO)[C@@H](O)[C@H](O)[C@H]3O)cc(O)c12 [Genistin] the Ki (ALDH-I [1]) was 360 nM, the “selectivity of ALDH inhibition” value (ALDH-I [1]) was “selectively inhibited ALDH-I” and the “potency as ALDH-I inhibitor, fold less than that of daidzin” value (ALDH-I [1]) was “approximately 10 fold”. The “relative potency as ALDH-I inhibitor, in words” value (ALDH-I [1]) was “nearly an order of magnitude less potent as an inhibitor than daidzin”, the Ki (ALDH-II [2]) was > 20000 nM and the “reversibility of ALDH-I inhibition” value (ALDH-I [3]) was “reversible selective inhibitor of ALDH-I”. For the same molecule, the IC50 (ALDH-I [4]; [8]) was 2000 nM and the IC50 (ALDH-II [5]) was > 20000 nM.

Cc1ccc2c(c1)OC(=O)CC2c1ccccc1 (stereo not shown) [7-Methyl-4-phenyl-3,4-dihydrocoumarin] gave an IC50 (ALDH-II [5]; [9]) of 500 nM.

Work on CC(C)c1ccc(-c2coc3ccccc3c2=O)cc1 [4'-Isopropylisoflavone] yielded an IC50 (ALDH-I [4]; [8]) of 5000 nM and an IC50 (ALDH-II [5]; [9]) of 1500 nM.

For COc1ccc(-c2cc(=O)c3c(O)cc(O)cc3o2)cc1 [Acacetin], the IC50 (ALDH-I [4]; [8]) was 5000 nM and the IC50 (ALDH-II [5]; [9]) was 5000 nM.

Work on O=c1cc(-c2ccccc2)oc2ccccc12 [Flavone] yielded an IC50 (ALDH-I [4]; [8]) of 10000 nM and an IC50 (ALDH-II [5]; [9]) of 5000 nM.

O=c1cc(-c2ccccc2)c2ccc(O)cc2o1 [7-Hydroxy-4-phenylcoumarin] showed an IC50 (ALDH-II [5]; [9]) of 300 nM.

Molecule CC(=O)Oc1ccc2c(=O)c(Cc3ccccc3)c(C)oc2c1OC(C)=O [3-Benzyl-7,8-diacetoxy-2-methylchromone] has an IC50 (ALDH-I [4]; [8]) of 10000 nM and an IC50 (ALDH-II [5]; [9]) of 3000 nM.

COc1ccc(-c2coc3cc(O[C@@H]4O[C@H](CO)[C@@H](O)[C@H](O)[C@H]4O)ccc3c2=O)cc1 [Ononin] showed an IC50 (ALDH-II [5]; [9]) of 20000 nM.

O=C(O)CCCCCCCCCCOc1ccc2c(=O)c(-c3ccc(O)cc3)coc2c1 [Daidzein 7-(ω-carboxydecyl) ether, daidzein 7-(ω-carboxydecyl)ether] showed a solubility (physchem) of 9 mM (≈ 3950 µg/mL) and a Ki (ALDH-II [6]) of 185 nM.

With O=c1c(-c2ccccc2)c(-c2ccccc2)oc2cc(O)ccc12 [3-Phenyl-7-hydroxyflavone] the IC50 (ALDH-I [4]; [8]) was 10000 nM and the IC50 (ALDH-II [5]; [9]) was 2000 nM.

In the case of CC1=C(c2ccccc2)C(=O)OC2CC(Cl)CCC12 (stereo not shown) [7-Chloro-4A,5,6,7,8,8A-hexahydro-4-methyl-3-phenylcoumarin], the IC50 (ALDH-I [4]; [8]) is reported as 1000 nM and the IC50 (ALDH-II [5]; [9]) is reported as 1000 nM.

With NC(=O)NC1NC(=O)NC1=O (stereo not shown) [allantoin] the “ALDH inhibition” value (ALDH-I or ALDH-II) was “not inhibitory”.

In the case of COc1cc(O)c2c(=O)c(-c3ccc(O)cc3)coc2c1 [Prunetin], the Ki (ALDH-I [1]) is reported as 300 nM, the “selectivity of ALDH inhibition” value (ALDH-I [1]) is reported as “selectively inhibited ALDH-I” and the “potency as ALDH-I inhibitor, fold less than that of daidzin” value (ALDH-I [1]) is reported as “approximately 10 fold”. For the same molecule, the “relative potency as ALDH-I inhibitor, in words” value (ALDH-I [1]) was “nearly an order of magnitude less potent as an inhibitor than daidzin”, the Ki (ALDH-II [2]) was 12000 nM and the IC50 (ALDH-I [4]) was 1000 nM. It also gave an IC50 (ALDH-II [5]) of 12000 nM.

With c1ccc(-c2ccc3ccccc3n2)cc1 [2-phenylquinoline] the “ALDH inhibition” value (ALDH-I or ALDH-II) was “did not inhibit”.

With CN1CC(=O)NC1=O [1-methylhydantoin] the “ALDH inhibition” value (ALDH-I or ALDH-II) was “not inhibitory”.

For O=C(O)CCCCCOc1ccc2c(=O)c(-c3ccc(O)cc3)coc2c1 [Daidzein 7-(ω-carboxypentyl) ether, daidzein 7-(ω-carboxypentyl) ether], the “suppression of alcohol intake, hamster C14” value (golden hamsters; trained hamster C14) was 56%, the “suppression of alcohol intake, hamster D6” value (golden hamsters; trained hamster D6) was 72% and the solubility (physchem) was 26 mM (≈ 9580 µg/mL). For the same molecule, the Ki (ALDH-II [6]) was 450 nM.

B1: human ALDH-I (Homo sapiens) (protein)
chain: T1 sequence (P05091 18-517)
B1 showed a Km [7] of 0.8 mM.
